Measured values taken from paper PMC9370530, “Modified Benzoxazole-Based VEGFR-2 Inhibitors and Apoptosis Inducers: Design, Synthesis, and Anti-Proliferative Evaluation” (Molecules, 2022).

Tests used:
VEGFR-2 kinase = target: T1, VEGFR-2 kinase (Homo sapiens, UniProt P35968); assay: In vitro VEGFR-2 kinase inhibitory assay (ELISA kit); format: biochemical; details: human VEGFR-2 ELISA kit; median of three experiments
T1 construct: purchased

breast cancer (MCF-7) = assay: In vitro anti-proliferative MTT assay, MCF-7; details: Homo sapiens, MCF7, 24 h, read-out: IC50 MCF-7
Description: (§6) This test was carried out on three different human cancer cell lines: MCF-7, HCT116, and HepG2 using the MTT method [66].
(§7) This test was carried out on three different human cancer cell lines: MCF-7, HCT116, and HepG2, We performed this colorimetric experiment with quantitative assessment of anticancer activity in accordance with the MTT method [1] The assay is based primarily on a biochemical reaction in which mitochondrial succinate dehydrogenase transforms yellow tetrazolium bromide (MTT) to a purple formazan derivative in live cells.
(§8) with 10% foetal bovine serum in general. In a 5 percent CO2 incubator at 37 °C, penicillin (100 units/mL) and streptomycin (100g/mL) were introduced. The cells were seeded at a density of 1.0x10^4 cells/well in a 96-well plate at 37 C for 48 hours under 5% CO2. […] The cells were given varying concentrations of the novel compounds and cultured for 24 hours. Then we add 20 l of MTT in a 5 mg/ml solution and let it sit for 4 hours.
(§9) 100 µl of DMSO was applied to each well to dissolve the purple formazan produced.
(§10) curve for each conc. using Graphpad Prism software (San Diego, CA. USA). The data presented are the mean of at least three separate experiments.
(§11) The IC50 of the selected derivatives were determined against VEGFR-2 kinase with enzyme linked immunosorbent assay (ELISA). We used a human VEGFR-2 ELISA kit. VEGFR-2 specific antibody was seeded on a 96 well microplate and 100 μL of solution of the standard or the tested compound was added. After incubation for 2.5 h. at room temperature and washing, 100 μL of prepared biotin antibody was added. Incubation of the plates for 1 h at room temperature and then washing were carried out before addition of streptavidin solution (100 μL). The mixture was incubated for 1h at room temperature and then washed. After that, 100 μL of tetramethybenzidine (TMB) substrate solution was added before incubation for half an hour at room temperature.
(§12) Finally, 50 μL of the stop solution was added immediately before the reading at 450 nm.
(§13) Percent inhibition was calculated by the comparison of compounds treated to control

[1] = tested on: hepatocellular carcinoma (HepG2); assay: In vitro anti-proliferative MTT assay, HepG2; details: Homo sapiens, HepG2, 24 h, read-out: IC50 HepG2
Description: as §6, §7, §8, §9, §10, §11, §12, §13

[2] = tested on: colorectal carcinoma (HCT116); assay: In vitro anti-proliferative MTT assay, HCT116; details: Homo sapiens, HCT-116, 24 h, read-out: IC50 HCT116
Description: as §6, §7, §8, §9, §10, §11, §12, §13

HepG2 cells = assay: HepG2 cell cycle analysis (PI flow cytometry); format: cell-based, human; details: 2.43 μM of compound
Description: The most promising candidate, compound 8d, was further evaluated by analyzing its effect on cycle phases of the HepG2 cells. From the results presented in Table 3, it can be noticed that a large percentage (70.23%) of cells treated with 8d was accumulated at the pre-G1 phase compared to the 2.70% reported for control cells. This clearly indicates the ability of compound 8d to inhibit HepG2 cell proliferation efficiently at the pre-G1 phase (Figure 5).
HepG2 Cell Cycle Analysis was performed for compound 8d according to the methodology reported by Wang et al.. The Supplementary data provides further detailed information about the study. […]
(§1) HepG2 cells were cultured according to the methodology described by Wang et al. The cells were planted and cultured for 24 h in six-well plates. Each well had 2 × 10^5 cells in it. Then 10% fetal bovine serum (FBS) was added, and the cells were incubated at 37 °C with 5% CO2.
The medium was then changed. DMSO (1% v/v) containing 2.43 μM of compound 8d was substituted. Following that, the cells were rinsed in cold phosphate buffered saline. (PBS), then fixed in 70% ethyl alcohol, washed in PBS, and […]. After that, the DNA fluorochrome propidium iodide (PI) was maintained at […] for 1 5 minutes at 37 °C. A FACS Caliber flow cytometer was used to analyze the samples. […]

TNF-α = TNF-α level in HepG2 cells by qRT-PCR; format: cell-based; details: Homo sapiens, 2.43 µM for 24 h
Description: (§2) The inhibition of these mediators caused apoptosis of tumor cells. Therefore, further investigation was conducted to see how compound 8 affect these cytokines (TNF-α and IL-6). Compound 8d was added to HepG2 cells at a concentration of 2.43 µM for 24 h, then the levels of TNF-α and IL-6 were measured using the qRT-PCR method.
(§3) The effects of 8d on TNF-α and IL-6 were determined using the qRT-PCR technique. The Supplementary data provides further detailed information about the study. […]
as §1
(§4) The medium was then changed. DMSO (1% v/v) containing 2.43 μM of compound 8d was substituted. Following that, the cells were rinsed in cold phosphate buffered saline. […]
(§5) 1.5. Quantitative Real Time Reverse-Transcriptase PCR (qRT-PCR) technique The effects of compound 8d on the expression of TNF-α and IL-6 were determined using qRT-PCR technique. The quantity of immunomodulatory proteins (TNF-α and IL-6) in control and compound 8d (at the IC50 concentration)-treated HepG2 cells was assessed by qRT-PCR (reference). […]

IL-6 = IL-6 level in HepG2 cells by qRT-PCR; format: cell-based; details: Homo sapiens, 2.43 µM for 24 h
Description: as §2, §3, §1, §4, §5

T1 sequence (P35968 20-1356): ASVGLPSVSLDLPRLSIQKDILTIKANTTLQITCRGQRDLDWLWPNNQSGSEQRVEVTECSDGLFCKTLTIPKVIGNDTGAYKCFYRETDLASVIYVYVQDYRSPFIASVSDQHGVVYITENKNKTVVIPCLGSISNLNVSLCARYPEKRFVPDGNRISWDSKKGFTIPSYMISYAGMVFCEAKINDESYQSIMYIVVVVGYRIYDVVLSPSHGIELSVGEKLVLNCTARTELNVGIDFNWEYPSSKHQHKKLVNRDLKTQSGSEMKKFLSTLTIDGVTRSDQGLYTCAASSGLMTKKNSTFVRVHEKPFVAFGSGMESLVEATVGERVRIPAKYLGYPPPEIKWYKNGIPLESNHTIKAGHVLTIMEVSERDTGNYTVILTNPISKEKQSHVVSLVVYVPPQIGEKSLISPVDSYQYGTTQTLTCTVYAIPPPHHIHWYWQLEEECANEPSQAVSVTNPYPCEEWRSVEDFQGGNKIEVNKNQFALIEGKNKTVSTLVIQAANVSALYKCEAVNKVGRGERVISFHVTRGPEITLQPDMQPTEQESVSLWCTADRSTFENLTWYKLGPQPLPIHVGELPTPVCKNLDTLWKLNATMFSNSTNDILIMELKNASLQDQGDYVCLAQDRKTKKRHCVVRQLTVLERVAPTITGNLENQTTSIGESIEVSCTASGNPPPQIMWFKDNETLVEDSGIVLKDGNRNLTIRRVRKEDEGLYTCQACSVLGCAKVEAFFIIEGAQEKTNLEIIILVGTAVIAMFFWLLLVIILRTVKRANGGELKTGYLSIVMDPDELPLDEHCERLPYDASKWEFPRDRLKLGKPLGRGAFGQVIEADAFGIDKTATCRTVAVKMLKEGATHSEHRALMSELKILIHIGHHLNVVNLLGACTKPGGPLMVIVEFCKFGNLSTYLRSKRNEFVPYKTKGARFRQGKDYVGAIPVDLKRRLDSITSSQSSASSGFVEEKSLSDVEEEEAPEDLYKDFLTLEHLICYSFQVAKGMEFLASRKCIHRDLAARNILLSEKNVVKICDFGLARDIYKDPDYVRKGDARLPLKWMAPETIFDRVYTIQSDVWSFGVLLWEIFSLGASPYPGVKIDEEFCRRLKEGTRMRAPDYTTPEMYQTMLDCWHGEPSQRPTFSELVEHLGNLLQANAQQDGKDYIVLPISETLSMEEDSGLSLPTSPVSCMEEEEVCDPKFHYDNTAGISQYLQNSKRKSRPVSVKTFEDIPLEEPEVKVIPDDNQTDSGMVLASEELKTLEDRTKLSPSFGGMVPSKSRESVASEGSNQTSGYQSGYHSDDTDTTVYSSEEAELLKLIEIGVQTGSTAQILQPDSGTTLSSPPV

Row | SMILES | IC50 (VEGFR-2 kinase) | IC50 (breast cancer (MCF-7)) | IC50 [1] | IC50 [2] | %Pre-G1 (HepG2 cells; control 2.70) | %G2-M (HepG2 cells; control 19.31) | %G0–G1 (HepG2 cells; control 39.81) | %S (HepG2 cells; control 40.88) | inhibition at 2.43 µM (TNF-α) | inhibition at 2.43 µM (IL-6)
1 | Cc1ccc(NC(=O)c2ccc(NC(=O)CSc3nc4ccccc4o3)cc2)cc1 [Compound 8a, 4-(2-(Benzo[d]oxazol-2-ylthio)acetamido)-N-(p-tolyl)benzamide] | 0.0579 µM | 9.49 ± 0.75 µM | 10.4 ± 0.98 µM | 10.1 ± 0.95 µM | – | – | – | – | – | –
2 | Cc1ccc(NC(=O)c2ccc(NC(=O)CSc3nc4cc(Cl)ccc4o3)cc2)cc1 [Compound 8b, 4-(2-((5-Chlorobenzo[d]oxazol-2-yl)thio)acetamido)-N-(p-tolyl)benzamide] | – | 12.4 ± 0.92 µM | 10.4 ± 0.92 µM | 11.6 ± 0.91 µM | – | – | – | – | – | –
3 | Cc1ccc(NC(=O)c2ccc(NC(=O)CSc3nc4cc(C)ccc4o3)cc2)cc1 [Compound 8c, 4-(2-((5-Methylbenzo[d]oxazol-2-yl)thio)acetamido)-N-(p-tolyl)benzamide] | 1.14 µM | 9.15 ± 0.85 µM | 8.16 ± 0.77 µM | 6.12 ± 0.55 µM | – | – | – | – | – | –
4 | O=C(CSc1nc2ccccc2o1)Nc1ccc(C(=O)Nc2ccc([N+](=O)[O-])cc2)cc1 [Compound 8d, 4-(2-(Benzo[d]oxazol-2-ylthio)acetamido)-N-(4-nitrophenyl)benzamide] | – | 3.43 ± 0.15 µM | 2.43 ± 0.16 µM | 2.79 ± 0.19 µM | 70.23% | 19.1% | 31.1% | 49.8% | 90.5% | 92.2%
5 | O=C(CSc1nc2cc(Cl)ccc2o1)Nc1ccc(C(=O)Nc2ccc([N+](=O)[O-])cc2)cc1 [Compound 8e, 4-(2-((5-Chlorobenzo[d]oxazol-2-yl)thio)acetamido)-N-(4-nitrophenyl) benzamide] | 0.0741 µM | 5.69 ± 0.44 µM | 4.51 ± 0.35 µM | 3.29 ± 0.26 µM | – | – | – | – | – | –
6 | Cc1ccc2oc(SCC(=O)Nc3ccc(C(=O)Nc4ccc([N+](=O)[O-])cc4)cc3)nc2c1 [Compound 8f, 4-(2-((5-Methylbenzo[d]oxazol-2-yl)thio)acetamido)-N-(4-nitrophenyl) benzamide] | 0.204 µM | 4.97 ± 0.32 µM | 4.41 ± 0.35 µM | 4 ± 0.33 µM | – | – | – | – | – | –
7 | CC(=O)c1ccc(NC(=O)c2ccc(NC(=O)CSc3nc4cc(Cl)ccc4o3)cc2)cc1 [Compound 8g, N-(4-Acetylphenyl)-4-(2-((5-chlorobenzo[d]oxazol-2-yl)thio)acetamido) benzamide] | – | 12.5 ± 1.1 µM | 8.44 ± 0.65 µM | 10.4 ± 0.92 µM | – | – | – | – | – | –
8 | CC(=O)c1ccc(NC(=O)c2ccc(NC(=O)CSc3nc4cc(C)ccc4o3)cc2)cc1 [Compound 8h, N-(4-Acetylphenyl)-4-(2-((5-methylbenzo[d]oxazol-2-yl)thio)acetamido) benzamide] | 0.114 µM | 3.53 ± 0.28 µM | 2.76 ± 0.18 µM | 2.94 ± 0.19 µM | – | – | – | – | – | –
9 | O=C(CSc1nc2ccccc2o1)Nc1ccc(C(=O)NCc2ccccc2)cc1 [Compound 8i, 4-(2-(Benzo[d]oxazol-2-ylthio)acetamido)-N-benzylbenzamide] | 0.317 µM | 10 ± 0.95 µM | 5.92 ± 0.47 µM | 8.53 ± 0.77 µM | – | – | – | – | – | –
10 | O=C(CSc1nc2cc(Cl)ccc2o1)Nc1ccc(C(=O)NCc2ccccc2)cc1 [Compound 8j, N-Benzyl-4-(2-((5-chlorobenzo[d]oxazol-2-yl)thio)acetamido)benzamide] | – | 16.9 ± 1.5 µM | 14.2 ± 1.1 µM | 18.2 ± 1.5 µM | – | – | – | – | – | –
11 | Cc1ccc2oc(SCC(=O)Nc3ccc(C(=O)NCc4ccccc4)cc3)nc2c1 [Compound 8k, N-Benzyl-4-(2-((5-methylbenzo[d]oxazol-2-yl)thio)acetamido)benzamide] | 0.653 µM | 8.37 ± 0.77 µM | 10.1 ± 0.93 µM | 8.09 ± 0.71 µM | – | – | – | – | – | –
12 | O=C(CSc1nc2ccccc2o1)Nc1ccc(C(=O)NCCc2ccccc2)cc1 [Compound 8l, 4-(2-(Benzo[d]oxazol-2-ylthio)acetamido)-N-phenethylbenzamide] | – | 12.5 ± 1.05 µM | 11.2 ± 0.95 µM | 14.2 ± 1.2 µM | – | – | – | – | – | –
13 | Cc1ccc2oc(SCC(=O)Nc3ccc(C(=O)NCCc4ccccc4)cc3)nc2c1 [Compound 8m, 4-(2-((5-Methylbenzo[d]oxazol-2-yl)thio)acetamido)-N-phenethylbenzamide] | – | 25.8 ± 2.1 µM | 28.6 ± 2.1 µM | 16.4 ± 1.3 µM | – | – | – | – | – | –
14 | C[C@@H]1C[C@H]2[C@@H]3CCC4=CC(=O)C=C[C@]4(C)[C@@]3(F)[C@@H](O)C[C@]2(C)[C@@]1(O)C(=O)CO [Dexamethasone, reference compound] | – | – | – | – | – | – | – | – | 82.5% | 93.2%
15 | CNC(=O)c1cc(Oc2ccc(NC(=O)Nc3ccc(Cl)c(C(F)(F)F)c3)cc2)ccn1 [Sorafenib, reference compound] | – | – | 3.4 ± 0.25 µM | 5.3 ± 0.44 µM | – | – | – | – | – | –
